Patent US12677850B2, “Stevia blends containing rebaudioside B” (Tate & Lyle Solutions USA LLC, priority 2011, dated 2026)

Legend:
[1] = previous reports; cited from earlier work
[2] = format: physicochemical; details: pH 3
Procedure: To determine the solubility of rebaudioside A and rebaudioside B in certain solutions, four stock solutions were prepared. A 10× concentrated citric acid/sodium citrate pH 3 stock buffer solution was prepared by dissolving 0.9 g anhydrous citric acid and 0.26 g of sodium citrate dihydrate in water to make 100 mL of buffer (0.047 M citric acid+0.0088 M sodium citrate). A 2500 ppm (nominal) solution of rebaudioside A was prepared by dissolving 0.125 g of GLG RA 97 to make 50 mL of solution. A 2500 ppm (nominal) solution of stevioside was prepared by dissolving 0.125 g of GLG STV 97 to make 50 mL of solution. A 1000 ppm (nominal) solution of rebaudioside B was prepared by diluting 56 mL of a solution assayed at 1790 ppm to make 100 mL of solution.
These solutions were mixed as 1 mL total amounts by micropipetting the volumes, in microliters, into 1.5 mL microcentrifuge tubes As shown in Table 14.
After standing for […] (~100 hours), the tubes were spun in a bench top microcentrifuge to pelletize the precipitate. The clear supernate was sampled into vials and assayed for glycosides using a reverse phase high performance liquid chromatograph (HPLC) gradient method with UV detection (Waters 2695 Separations Module equipped with a Waters 2487 Dual X Absorbance Detector or equivalent instrumentation) that is summarized in Table 15. The HPLC conditions were as follows:
The supernatant data collected from the HPLC were processed using DESIGN EXPERT 8 software. Briefly, the data were entered into the program as “factor” data as a 2 factor-5 level general factorial design as the nominal data which were then converted to numerical data and replaced by the actual HPLC results. The software then selected a model that predicted the concentration (solubility) of rebaudioside B as a function of the concentration of rebaudioside A and stevioside in the supernatant. The software also calculated a number of statistical factors that indicated the significance of the model parameters.

## rebaudioside B
[1]
  sweetness relative to rebaudioside A: one-half to two-thirds
[2]
  solubility: limited
